Key:
[1] = molecular target: T1, cell bound CD73 on Human NSCLC H1568 cells (Homo sapiens, UniProt P21589); assay: Cellular CD73 assay in H1568 cells, adenosine produced from AMP by LC-MS/MS; assay type: cell-based; conditions: RPMI/10% human plasma, 1 h with AMP/EHNA, adenosine in supernatant
T1 construct: Human NSCLC H1568 cells expressing endogenous CD73 on their surface; host or cells: H1568 (human NSCLC)
T1 sequence (P21589 27-549): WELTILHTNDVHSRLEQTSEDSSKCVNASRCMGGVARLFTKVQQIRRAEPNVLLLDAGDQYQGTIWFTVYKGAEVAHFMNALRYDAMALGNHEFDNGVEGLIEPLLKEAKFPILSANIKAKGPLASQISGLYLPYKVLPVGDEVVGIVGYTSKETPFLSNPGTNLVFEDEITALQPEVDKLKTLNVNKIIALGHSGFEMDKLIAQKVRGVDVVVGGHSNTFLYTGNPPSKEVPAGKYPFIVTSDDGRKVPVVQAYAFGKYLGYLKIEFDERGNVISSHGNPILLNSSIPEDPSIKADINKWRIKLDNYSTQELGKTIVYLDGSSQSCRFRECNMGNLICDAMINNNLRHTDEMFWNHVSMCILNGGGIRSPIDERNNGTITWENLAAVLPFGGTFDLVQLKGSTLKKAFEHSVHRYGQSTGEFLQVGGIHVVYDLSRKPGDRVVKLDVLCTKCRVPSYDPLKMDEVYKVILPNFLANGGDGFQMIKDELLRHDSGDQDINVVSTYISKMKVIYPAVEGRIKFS
Procedure: Activity of cell bound CD73 was assessed by direct measurement of adenosine produced from AMP using liquid chromatography with tandem mass-spectrometry (LC-MS/MS). Human NSCLC H1568 cells expressing endogenous CD73 on their surface were obtained from ATCC(CRL-5876) and cultured in growth medium (RPMI, 10% FBS, 1 mM L-glutamine, […]). Cells were seeded onto 96-well tissue culture plates at 10,000 cells/well and allowed to adhere for 20-24 h. 500× serial compound dilutions were prepared in DMSO in a 12-point 3-fold titration, and then diluted 1:50 into RPMI supplemented with 10% human plasma (BioIVT, cat #HMPLEDTA5) generating 10× compound dilutions. Growth medium was removed from the cells and replaced with […] of RPMI/10% human plasma. 10 mL of 10× compound dilutions were then added to the cells and incubated for 15 min at 37° C., 5% CO2. Then 10 mL of 100 mM AMP/50 mM EHNA (Sigma-Aldrich, A1752 and E114) were added to a final concentration of […]. After 1 h incubation at 37° C., 5% CO2, […] of supernatant was removed from the cells and transferred to a deep well polypropylene 96-well plate (Costar #3961) prefilled with 240 mL of organic solvent composed of methanol:acetonitrile (1:1, v/v) with 0.1% formic acid, plus 150 ng/mL of Adenosine-15N and AMP-13C as internal standards. Amount of unlabeled adenosine and AMP in each well was measured on AB Sciex API 4000 QTrap with Shimadzu LC-30AD UPLC system. Limits of adenosine and AMP detection were 10-10,000 nM and 20-10,000 nM, respectively. The IC50 values were determined based on amount of adenosine in the supernatant using four parameter non-linear regression curve fit. DMSO treated cells produced 3000-4000 nM adenosine under these conditions with negligible variability on the same day assays. Small amount of adenosine generated from AMP in the absence of cells (less than 100 nM) was used as 100% inhibition control. […]

[2] = molecular target: T2, mouse CD73 (EMT6 breast cancer cells) (Mus musculus, UniProt Q61503); assay: Cellular CD73 assay in mouse EMT6 breast cancer cells, adenosine by LC-MS/MS; assay type: cell-based; conditions: PBS/3% BSA, adenosine in supernatant
T2 construct: mouse EMT6 breast cancer cells which express endogenous CD73 on their surface; host or cells: EMT6 (mouse breast cancer)
T2 sequence (Q61503 29-551): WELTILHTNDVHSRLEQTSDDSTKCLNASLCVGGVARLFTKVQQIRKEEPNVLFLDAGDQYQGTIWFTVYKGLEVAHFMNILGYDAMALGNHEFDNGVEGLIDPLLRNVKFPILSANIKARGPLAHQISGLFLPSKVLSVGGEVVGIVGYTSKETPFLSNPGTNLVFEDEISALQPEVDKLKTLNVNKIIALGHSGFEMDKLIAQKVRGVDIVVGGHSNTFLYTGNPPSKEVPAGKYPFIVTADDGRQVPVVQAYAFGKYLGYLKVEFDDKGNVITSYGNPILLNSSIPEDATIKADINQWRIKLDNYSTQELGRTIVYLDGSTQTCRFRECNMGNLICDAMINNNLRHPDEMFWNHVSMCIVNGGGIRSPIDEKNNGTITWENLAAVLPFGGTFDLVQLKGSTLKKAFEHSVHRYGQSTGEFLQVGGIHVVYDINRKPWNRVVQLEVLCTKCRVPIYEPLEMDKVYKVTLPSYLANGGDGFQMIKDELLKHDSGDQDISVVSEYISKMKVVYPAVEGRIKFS
Procedure: Activity of cell bound CD73 was assessed by direct measurement of adenosine produced from AMP using liquid chromatography with tandem mass-spectrometry (LC-MS/MS). Human NSCLC H1568 cells expressing endogenous CD73 on their surface were obtained from ATCC(CRL-5876) and cultured in growth medium (RPMI, 10% FBS, 1 mM L-glutamine, 100 mL penicillin-streptomycin). Cells were seeded onto 96-well tissue culture plates at 10,000 cells/well and allowed to adhere for 20-24 h. 500× serial compound dilutions were prepared in DMSO in a 12-point 3-fold titration, and then diluted 1:50 into RPMI supplemented with 10% human plasma (BioIVT, cat #HMPLEDTA5) generating 10× compound dilutions. Growth medium was removed from the cells and replaced with […] of RPMI/10% human plasma. 10 mL of 10× compound dilutions were then added to the cells and incubated for 15 min at 37° C., 5% CO2. Then 10 mL of 100 mM AMP/50 mM EHNA (Sigma-Aldrich, A1752 and E114) were added to a final concentration of 10 mM AMP/5 mM EHNA. After 1 h incubation at 37° C., 5% CO2, 80 mL of supernatant was removed from the cells and transferred to a deep well polypropylene 96-well plate (Costar #3961) prefilled with 240 mL of organic solvent composed of methanol:acetonitrile (1:1, v/v) with 0.1% formic acid, plus 150 ng/mL of Adenosine-15N and AMP-13C as internal standards. Amount of unlabeled adenosine and AMP in each well was measured on AB Sciex API 4000 QTrap with Shimadzu LC-30AD UPLC system. Limits of adenosine and AMP detection were 10-10,000 nM and 20-10,000 nM, respectively. The IC50 values were determined based on amount of adenosine in the supernatant using four parameter non-linear regression curve fit. DMSO treated cells produced 3000-4000 nM adenosine under these conditions with negligible variability on the same day assays. Small amount of adenosine generated from AMP in the absence of cells (less than 100 nM) was used as 100% inhibition control.
To determine activity of compounds on mouse CD73 mouse EMT6 breast cancer cells which express endogenous CD73 on their surface (ATCC, CRL-2755) were used. […]

[3] = molecular target: T3, CD73 (Homo sapiens, UniProt P21589); assay: CD73 biochemical assay, Malachite Green detection of AMP hydrolysis; conditions: CD73 320 pM, AMP 15 μM, Malachite Green readout
T3 sequence (P21589 27-549): T1 sequence (P21589 27-549)
Method in brief: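 Human CD73 (0.3208 nM, i.e. 320 pM) preincubated 15 min RT with compounds (10-point ½-log titration from 100 μM, duplicates) in Tris pH 7.4, 5 mM MgCl2, Brij-35, BSA; 15 μM AMP added, 10 min RT. Phosphate read by Malachite Green absorbance; IC50 determined.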

Row | EC50 [1] | EC50 [2] | IC50 [3] | SMILES
1 | ≤ 500 pM | ≤ 500 pM | ≤ 500 pM | COC[C@](COCc1nn[nH]n1)(OC[C@H]1O[C@@H](c2ccc3c(NC4CCCC4)nc(Cl)nn23)[C@H](O)[C@@H]1O)P(=O)(O)O (single isomer, unassigned) [Example 9]
2 | ≤ 500 pM | 500 to 1000 pM | ≤ 500 pM | O=P(O)(O)[C@@](CO)(COCc1nn[nH]n1)OC[C@H]1O[C@@H](c2ccc3c(NC4CCC4)nc(Cl)nn23)[C@H](O)[C@@H]1O [Example 51, ((S)-1-((2H-tetrazol-5-yl)methoxy)-2-(((2R,3S,4R,5S)-5-(2-chloro-4-(cyclobutylamino)pyrrolo[2,1-f][1,2,4]triazin-7-yl)-3,4-dihydroxytetrahydrofuran-2-yl)methoxy)-3-hydroxypropan-2-yl)phosphonic acid]
3 | 500 to 1000 pM | 1000 to 100000 pM | ≤ 500 pM | O=P(O)(O)[C@@](CO)(COCc1nn[nH]n1)OC[C@H]1O[C@@H](c2ccc3c(NC4CCCC4)nc(Cl)nn23)[C@H](O)[C@@H]1O [Example 15, ((S)-1-((2H-Tetrazol-5-yl)methoxy)-2-(((2R,3S,4R,5S)-5-(2-chloro-4-(cyclopentylamino)pyrrolo[2,1-f][1,2,4]triazin-7-yl)-3,4-dihydroxytetrahydrofuran-2-yl)methoxy)-3-hydroxypropan-2-yl)phosphonic acid]
